Experimental data: patent US20080234273A1, “Heteroaryl Benzamide Derivatives for Use as Glk Activators in the Treatment of Diabetes” (priority 2005, published 2008)

Molecular target: T1, recombinant human pancreatic GLK (Homo sapiens, UniProt P35557)
T1 sequence (P35557 1-465): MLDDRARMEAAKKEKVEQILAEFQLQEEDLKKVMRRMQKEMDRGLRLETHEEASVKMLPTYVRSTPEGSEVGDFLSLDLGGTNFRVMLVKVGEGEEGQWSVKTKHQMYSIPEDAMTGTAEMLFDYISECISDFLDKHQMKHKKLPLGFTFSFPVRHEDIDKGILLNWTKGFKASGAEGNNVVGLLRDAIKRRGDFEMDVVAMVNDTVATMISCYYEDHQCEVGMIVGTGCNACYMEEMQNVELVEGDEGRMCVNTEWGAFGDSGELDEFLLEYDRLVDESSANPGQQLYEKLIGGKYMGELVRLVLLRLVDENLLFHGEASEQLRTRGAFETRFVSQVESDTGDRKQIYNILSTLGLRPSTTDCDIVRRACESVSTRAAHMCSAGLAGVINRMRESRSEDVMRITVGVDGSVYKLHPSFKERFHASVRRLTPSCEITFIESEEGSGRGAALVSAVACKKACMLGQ
Experiment: biochemical

C[C@@H](COC(F)F)Oc1cc(Oc2ccc(C(=O)N3CCC3)cc2Cl)cc(C(=O)Nc2ccn(C)n2)c1 [Example 1, 3-{[4-(Azetidin-1-ylcarbonyl)-2-chlorophenyl]oxy}-5-({(1S)-2-[(difluoromethyl)oxy]-1-methylethyvl}oxy)-N-(1-methyl-1H-pyrazol-3-yl)benzamide]
EC50: 40 nM
